# Test system: Human prostate cancer cell lines (PC-3 cells)
# Assay: Measurement of cell death-inducing activity (Test Example 1)
# Assay type: cell-based
# Settings: PC-3, 48 h, 48 hours after addition, tested at 10, 1, 0.1, 0.025 and 0.00625 μmol/L, qualitative evaluation of 10 fields, read-out: Concentration showing the cell death-inducing activity (cell death-inducing rate not less than 40%)
# Procedure, shortened: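 PC-3 cells seeded at 1×10^5 cells/well and grown 48 h at 37 °C, 5% CO2, then exposed to compound at 10, 1, 0.1, 0.025 and 0.00625 μmol/L (DMSO control) for a further 48 h. Activity was called where cell death-inducing rate was not less than 40%.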
row,SMILES,minimal effective concentration [µM]
1,CCn1cnc2cc(NC(=O)OCc3sc(-c4ccc(F)cc4Cl)nc3C)ccc21 [Example 13-18],0.025
2,CCCn1cnc2cc(NC(=O)OCc3sc(-c4ccc(C)cc4C)nc3C)ccc21 [Example 13-19],1
3,CCn1c(C)nc2cc(NC(=O)OCc3sc(-c4ccc(C)cc4C)nc3C)ccc21 [Example 13-20],1
4,CCn1c(C)nc2cc(NC(=O)OCc3sc(-c4ccc(Cl)cc4C)nc3C)ccc21 [Example 13-21],0.1
5,COc1ccccc1-c1nc(C)c(COC(=O)Nc2ccc3c(c2)nc2n3CCOC2)s1 [Example 13-22],10
6,COc1cc(Cl)ccc1-c1nc(C)c(COC(=O)Nc2ccc3c(c2)nc2n3CCOC2)s1 [Example 13-23],1
7,Cc1ccc(-c2nc(C)c(COC(=O)Nc3ccc4c(c3)nc3n4CCOC3)s2)c(C)c1 [Example 13-24],0.025
8,Cc1cc(F)ccc1-c1nc(C)c(COC(=O)Nc2ccc3c(c2)nc2n3CCOC2)s1 [Example 13-25],0.025
9,Cc1cc(Cl)ccc1-c1nc(C)c(COC(=O)Nc2ccc3c(c2)nc2n3CCOC2)s1 [Example 13-26],0.00625
10,COc1cc(Cl)ccc1-c1nc(C)c(COC(=O)Nc2ccc3c(c2)nc2n3CCC2)s1 [Example 13-27],1
11,Cc1ccc(-c2nc(C)c(COC(=O)Nc3ccc4c(c3)nc3n4CCC3)s2)c(C)c1 [Example 13-28],0.025
12,Cc1nc(-c2ccc(F)cc2Cl)sc1COC(=O)Nc1ccc2c(c1)nc1n2CCC1 [Example 13-30],0.1
13,COc1cc(Cl)ccc1-c1nc(C)c(COC(=O)Nc2ccc3c(c2)nc2n3CCCC2)s1 [Example 13-31],1
14,Cc1ccc(-c2nc(C)c(COC(=O)Nc3ccc4c(c3)nc3n4CCCC3)s2)c(C)c1 [Example 13-33],0.1
15,Cc1cc(F)ccc1-c1nc(C)c(COC(=O)Nc2ccc3c(c2)nc2n3CCCC2)s1 [Example 13-34],0.025
16,Cc1cc(Cl)ccc1-c1nc(C)c(COC(=O)Nc2ccc3c(c2)nc2n3CCCC2)s1 [Example 13-35],0.025
17,COc1cc(Cl)ccc1-c1nc(C)c(COC(=O)Nc2ccc3c(c2)nc2n3C(C)CCC2)s1 (stereo not drawn) [Example 13-36],10
18,Cc1cc(Cl)ccc1-c1nc(C)c(COC(=O)Nc2ccc3c(c2)nc2n3CCCCC2)s1 [Example 13-39],1
19,COc1cc(Cl)ccc1-c1nc(C)c(COC(=O)Nc2ccc3c(cnn3C)c2)s1 [Example 13-41],1
20,CCn1ncc2cc(NC(=O)OCc3sc(-c4ccc(F)cc4C)nc3C)ccc21 [Example 13-44],0.1
21,CCn1ncc2cc(NC(=O)OCc3sc(-c4ccc(C)cc4C)nc3C)ccc21 [Example 13-45],0.1
22,COc1cc(Cl)ccc1-c1nc(C)c(COC(=O)Nc2ccc3nn(C)cc3c2)s1 [Example 13-46],10
23,Cc1ccc(-c2nc(C)c(COC(=O)Nc3ccc4nn(C)cc4c3)s2)c(C)c1 [Example 13-48],0.1
24,Cc1cc(F)ccc1-c1nc(C)c(COC(=O)Nc2ccc3nn(C)cc3c2)s1 [Example 13-49],0.1

row,SMILES,minimal effective concentration [µM]
1,Cc1cc(Cl)ccc1-c1nc(C)c(COC(=O)Nc2ccc3nn(C)cc3c2)s1 [Example 13-50],0.025
2,CCn1cc2cc(NC(=O)OCc3sc(-c4ccc(F)cc4C)nc3C)ccc2n1 [Example 13-54],0.1
3,CCn1cc2cc(NC(=O)OCc3sc(-c4ccc(Cl)cc4C)nc3C)ccc2n1 [Example 13-55],0.025
4,CCn1cc2cc(NC(=O)OCc3sc(-c4ccc(F)cc4Cl)nc3C)ccc2n1 [Example 13-56],0.1
5,CCn1cnc2cc(NC(=O)OCc3sc(-c4ccco4)nc3C)ccc21 [Example 13-57],1
6,Cc1nc(-c2sccc2Cl)sc1COC(=O)Nc1ccc2c(c1)nc1n2CCOC1 [Example 13-61],10
7,COc1ccccc1-c1ncc(COC(=O)Nc2ccc3c(c2)ncn3C)s1 [Example 13-66],10
8,CCc1nc(-c2ccc(Cl)cc2OC)sc1COC(=O)Nc1ccc2c(c1)ncn2C [Example 13-67],0.1
9,CCCc1nc(-c2ccc(Cl)cc2OC)sc1COC(=O)Nc1ccc2c(c1)ncn2C [Example 13-68],1
10,COc1ccc(NC(=O)OCc2cc(-c3ccc(F)cc3OC)nn2C)cc1 [Example 13-70],10
11,COc1ccc(NC(=O)OCc2cc(-c3ccc(Cl)cc3OC)nn2C)cc1F [Example 13-71],1
12,COc1ccc(NC(=O)OCc2cc(-c3ccc(C)cc3OC)nn2C)cc1F [Example 13-72],1
13,COc1cc(Cl)ccc1-c1cc(COC(=O)Nc2ccc3c(c2)CCO3)n(C)n1 [Example 13-73],10
14,COc1ccccc1-c1cc(COC(=O)Nc2ccc3c(c2)ncn3C)n(C)n1 [Example 13-76],0.025
15,CCn1nc(-c2ccccc2OC)cc1COC(=O)Nc1ccc2c(c1)ncn2C [Example 13-77],0.1
16,CCn1cnc2cc(NC(=O)OCc3cc(-c4ccccc4OC)nn3C)ccc21 [Example 13-78],0.1
17,COc1cc(F)ccc1-c1cc(COC(=O)Nc2ccc3c(c2)ncn3C)n(C)n1 [Example 13-80],0.00625
18,CCn1nc(-c2ccc(F)cc2OC)cc1COC(=O)Nc1ccc2c(c1)ncn2C [Example 13-81],0.025
19,CCn1cnc2cc(NC(=O)OCc3cc(-c4ccc(F)cc4OC)nn3C)ccc21 [Example 13-82],0.025
20,CCn1nc(-c2ccc(F)cc2OC)cc1COC(=O)Nc1ccc2c(c1)ncn2CC [Example 13-83],0.025
21,COc1cc(Cl)ccc1-c1cc(COC(=O)Nc2ccc3c(c2)ncn3C)n(C)n1 [Example 13-84],0.00625
22,CCn1nc(-c2ccc(Cl)cc2OC)cc1COC(=O)Nc1ccc2c(c1)ncn2C [Example 13-85],0.00625
23,CCn1cnc2cc(NC(=O)OCc3cc(-c4ccc(Cl)cc4OC)nn3C)ccc21 [Example 13-86],0.00625
24,CCn1nc(-c2ccc(Cl)cc2OC)cc1COC(=O)Nc1ccc2c(c1)ncn2CC [Example 13-87],0.025

row,SMILES,minimal effective concentration [µM]
1,COc1cc(C)ccc1-c1cc(COC(=O)Nc2ccc3c(c2)ncn3C)n(C)n1 [Example 13-88],0.00625
2,CCn1nc(-c2ccc(C)cc2OC)cc1COC(=O)Nc1ccc2c(c1)ncn2C [Example 13-89],0.00625
3,CCn1nc(-c2ccc(C)cc2OC)cc1COC(=O)Nc1ccc2c(c1)ncn2CC [Example 13-91],0.1
4,CCn1cnc2cc(NC(=O)OCc3cc(-c4ccc(C)cc4C)nn3C)ccc21 [Example 13-92],0.00625
5,COCc1nc2cc(NC(=O)OCc3cc(-c4ccc(C)cc4OC)nn3C)ccc2n1C [Example 13-93],1
6,COCCn1cnc2cc(NC(=O)OCc3cc(-c4ccc(Cl)cc4OC)nn3C)ccc21 [Example 13-94],1
7,COc1ccccc1-c1cc(COC(=O)Nc2ccc3c(c2)nc2n3CCOC2)n(C)n1 [Example 13-95],0.025
8,CCn1nc(-c2ccccc2OC)cc1COC(=O)Nc1ccc2c(c1)nc1n2CCOC1 [Example 13-96],0.1
9,COc1cc(F)ccc1-c1cc(COC(=O)Nc2ccc3c(c2)nc2n3CCOC2)n(C)n1 [Example 13-97],0.00625
10,CCn1nc(-c2ccc(F)cc2OC)cc1COC(=O)Nc1ccc2c(c1)nc1n2CCOC1 [Example 13-98],0.025
11,COc1cc(Cl)ccc1-c1cc(COC(=O)Nc2ccc3c(c2)nc2n3CCOC2)n(C)n1 [Example 13-99],0.00625
12,CCn1nc(-c2ccc(Cl)cc2OC)cc1COC(=O)Nc1ccc2c(c1)nc1n2CCOC1 [Example 13-100],0.00625
13,CCn1nc(-c2ccc(C)cc2OC)cc1COC(=O)Nc1ccc2c(c1)nc1n2CCOC1 [Example 13-102],0.025
14,Cc1ccc(-c2cc(COC(=O)Nc3ccc4c(c3)nc3n4CCOC3)n(C)n2)c(C)c1 [Example 13-103],0.00625
15,CCn1nc(-c2ccc(C)cc2C)cc1COC(=O)Nc1ccc2c(c1)nc1n2CCOC1 [Example 13-104],0.025
16,COc1ccccc1-c1cc(COC(=O)Nc2ccc3c(c2)nc2n3CCC2)n(C)n1 [Example 13-105],0.025
17,COc1cc(F)ccc1-c1cc(COC(=O)Nc2ccc3c(c2)nc2n3CCC2)n(C)n1 [Example 13-106],0.00625
18,CCn1nc(-c2ccc(F)cc2OC)cc1COC(=O)Nc1ccc2c(c1)nc1n2CCC1 [Example 13-107],0.025
19,COc1cc(Cl)ccc1-c1cc(COC(=O)Nc2ccc3c(c2)nc2n3CCC2)n(C)n1 [Example 13-108],0.00625
20,CCn1nc(-c2ccc(Cl)cc2OC)cc1COC(=O)Nc1ccc2c(c1)nc1n2CCC1 [Example 13-109],0.00625
21,Cc1ccc(-c2cc(COC(=O)Nc3ccc4c(c3)nc3n4CCC3)n(C)n2)c(C)c1 [Example 13-110],0.00625
22,CCn1nc(-c2ccc(C)cc2C)cc1COC(=O)Nc1ccc2c(c1)nc1n2CCC1 [Example 13-111],0.00625
23,COc1cc(C)ccc1-c1cc(COC(=O)Nc2ccc3c(c2)nc2n3CCC2)n(C)n1 [Example 13-112],0.00625
24,CCn1nc(-c2ccc(C)cc2OC)cc1COC(=O)Nc1ccc2c(c1)nc1n2CCC1 [Example 13-113],0.00625

# From patent US9200008B2 (ASKA PHARMACEUTICAL CO., LTD., priority 2010, dated 2015)
